Experiment in all cases: NCI anticancer screen, dose series, 48 h
The test system of test [1] is HCT-116.
Test [2] has as its system HL-60.
For test [3], the system named is HOP-92.
Test [4] deals with LOX IMVI.
For test [5], the system named is M14.
Test [6] has as its system MDA-MB-231.
The test system of test [7] is Malme-3M.
Test [8] relates to NCI-H226.
For test [9], the system named is NCI-H23.
Test [10] relates to OVCAR-4.
For test [11], the system named is OVCAR-5.
For test [12], the system named is SF-268.
Test [13] relates to SK-MEL-5.
The subject of test [14] is SNB-19.
Test [15] has as its system SW-620.
The subject of test [16] is U-251.
Test [17] relates to UACC-257.
Test [18] relates to HCC 2998.

Results on five molecules are retold here after ChEMBL document CHEMBL1201862, “PubChem BioAssay data set” (2004).

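Results reflect a 48-hour exposure of cells in 96-well plates to compound at five concentrations. GI50 = concentration required for 50% inhibition of growth.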 Active and inactive are the calls of the source. No stated cut-off is given here; in the data, active = GI50 up to about 1.1 µM and inactive = higher.

In the case of `CCN(CC)C(=S)N/N=C1\C(=O)Nc2ccccc21`, the GI50 in test [1] is 0.386 µM (active); in test [2], 0.338 µM (active); in test [3], 2.79 µM (inactive); in [4], 0.495 µM (active); in test [5], 0.586 µM (active); in [6] it was 1.14 µM (inactive). For the same molecule, the GI50 is 0.298 µM (active) in test [7]; 0.59 µM (active) in test [8]; 2.9 µM (inactive) in test [9]; 0.771 µM (active) in [10]; 6.18 µM (inactive) in test [11]; > 100 µM (inactive) in [12]. Also, the GI50 in test [13] is 0.193 µM (active); in test [14], 1.69 µM (inactive); in test [15], 0.493 µM (active); in [16] it was 1.41 µM (inactive); in [17], 1.64 µM (inactive).

`Nc1nc(N)c2cc(-c3cc4ccccc4[nH]3)ccc2n1`: the GI50 in test [1] is 31.8 µM (inactive); in [2], 19.7 µM (inactive); in [3], 12.2 µM (inactive); in [4] it was 18.5 µM (inactive); in test [5], 17.6 µM (inactive); in test [6] it was 17.2 µM (inactive). The GI50 in test [7] was 16 µM (inactive); in test [8] it was 27.7 µM (inactive); in test [9], 27.5 µM (inactive); in [10] it was 21.9 µM (inactive); in test [11], 18.6 µM (inactive); in test [12] it was 22.2 µM (inactive). Moreover, the GI50 in [13] is 15.2 µM (inactive); in test [14], 33 µM (inactive); in test [15] it was 30.8 µM (inactive); in test [16] it was 30.4 µM (inactive); in [17] it was 16.2 µM (inactive).

For the molecule `COC(=O)C(=O)C(C(=O)C(=O)Nc1ccc(Cl)c(Cl)c1)c1nc2ccc(C(=O)c3ccccc3)cc2nc1O` (stereo not drawn), the GI50 in test [1] is 61.4 µM (inactive); in test [2], 45 µM (inactive); in test [3], > 100 µM (inactive); in test [4], 59.3 µM (inactive); in test [5], 67.3 µM (inactive); in test [6] it was 51.3 µM (inactive). The GI50 is 73.8 µM (inactive) in test [7]; 56.4 µM (inactive) in [8]; 47.6 µM (inactive) in test [9]; > 100 µM (inactive) in test [11]; 51.4 µM (inactive) in test [12]; > 100 µM (inactive) in [13]. Moreover, the GI50 in test [14] was 45.6 µM (inactive); in test [15] it was 46.9 µM (inactive); in [16], 71 µM (inactive); in test [17], > 100 µM (inactive).

For `Nc1ncc2c(n1)-c1ccccc1OC2N1CCCCC1` (stereo not drawn), the GI50 in test [1], in test [2], in [3], in [4], in [5] and in test [6] was > 100 µM (inactive) each time. Moreover, the GI50 in [8], in [9], in test [10], in test [11], in test [12] and in test [13] was > 100 µM (inactive) in each case. Moreover, the GI50 in test [14], in [15], in test [16] and in [17] was > 100 µM (inactive) in each case.

`C[C@]12CC(c3ccccc3O1)C(C(=O)NC13CC4CC(CC(C4)C1)C3)C(=O)N2` (stereo partly drawn): the GI50 in test [18] is 29 µM (inactive); in test [1] it was 18.4 µM (inactive); in [3], 20.7 µM (inactive); in test [4], 23.4 µM (inactive); in test [5], 15.6 µM (inactive); in [6] it was 34.4 µM (inactive). The GI50 in test [7] is 33 µM (inactive); in test [8] it was 23.6 µM (inactive); in [9] it was 23.7 µM (inactive); in test [10] it was 52.6 µM (inactive); in [11] it was 19.5 µM (inactive); in test [12] it was 32.1 µM (inactive). For the same molecule, the GI50 was 17.9 µM (inactive) in [13]; 23.4 µM (inactive) in test [14]; 46.3 µM (inactive) in [15]; 36.6 µM (inactive) in [16]; 35.7 µM (inactive) in [17].
